The text below walks through data of paper PMC6691587, “New CXCR1/CXCR2 inhibitors represent an effective treatment for kidney or head and neck cancers sensitive or refractory to reference treatments” (Theranostics, 2019).

Like-named read-outs stand apart in the source and are kept apart here.

One experiment concerns 786-O cells. In words: Ectopic model of RCC (786-O xenograft). It is filed as in vivo, nude (nu/nu) female mice. The conditions noted are these: C29 100 µg i.p. three per week; danirixin 200 µg three times a week; sunitinib 50 mg/kg oral gavage five times a week. As for the experimental part:
These studies were carried out in strict accordance with the recommendations in the Guide for the Care and Use of Laboratory Animals. Our experiments were approved by the ''Comité National Institutionnel d'Ethique pour l'Animal de Laboratoire'' (reference: PEA-255 and PEA-277). Cells were injected subcutaneously into the flank of 5-week-old nude (nu/nu) female mice (Janvier). When the tumor reached 100 mm^3, mice were treated. The tumor volume was determined with a caliper (v = L*l2*0.5).
2- Seven million 786-O cells were injected subcutaneously.

The subject of another experiment is CAL27. In words: XTT cell viability assay, CAL27 HNSCC cells. The following applies: XTT assay, 48 h, SD 10%, mean of three experiments, read-out: IC50 27 (HNSCC). Format: cell-based, human. As for the experimental part:
(§1) Fifty microliters of sodium 3′-[1-phenylaminocarbonyl)-3,4-tetrazolium]-bis(4-methoxy-6-nitro) benzene sulfonic acid hydrate (XTT) reagent was added to each well. The assay is based on the cleavage of the yellow tetrazolium salt XTT to form an orange formazan dye by metabolically active cells. This bio-reduction occurs in viable cells only and is related to NAD(P)H production through glycolysis. Therefore, the amount of formazan dye measured at 490 nm directly correlated with the number of metabolically active cells reflecting cell proliferation and viability. Each assay was performed in quadruplicate.
For orientation: Formazan colour is commonly taken as a measure of viable cells.

The next experiment concerns CAL33. Description: XTT cell viability assay, CAL33 HNSCC cells. Format: cell-based, human. The following applies: XTT assay, 48 h, SD 10%, mean of three experiments, read-out: IC50 33 (HNSCC). As for the experimental part:
as §1

Another experiment has as its system A498. Description: XTT cell viability assay, A498 RCC cells. It is filed as cell-based, human. The conditions noted are these: XTT assay, 48 h, SD 10%, mean of three experiments, read-out: IC50 498 (Kidney RCC). As to the method:
as §1

The subject of another experiment is RCC4. In words: XTT cell viability assay, RCC4 RCC cells. The following applies: SD 10%, mean of three experiments, read-out: IC50 R4 (Kidney RCC). It is filed as cell-based, human. As to the method: as §1
The next experiment concerns 786-O. Description: XTT cell viability assay, 786-O RCC cells. It is filed as cell-based, human. The following applies: XTT assay, 48 h, SD 10%, mean of three experiments, read-out: IC50 786 (Kidney RCC). As for the experimental part:
as §1

The subject of another experiment is MDA-MD-231. Description: XTT cell viability assay, breast cancer cells. Format: cell-based, human. The following applies: 48 h, SD 10%, mean of three experiments. As to the method:
as §1

The next experiment concerns OCI-AML2. In words: XTT cell viability assay, OCI-AML2 AML cells. It is filed as cell-based, human. The following applies: SD 10%, mean of three experiments, read-out: IC50 L2 (AML). As to the method:
as §1

The next experiment has as its system OCI-AML3. In words: XTT cell viability assay, OCI-AML3 AML cells. Format: cell-based, human. The conditions noted are these: SD 10%, mean of three experiments, read-out: IC50 L3 (AML). As for the experimental part:
as §1

In another experiment the test system is Molm13. In words: XTT cell viability assay, Molm13 AML cells. The conditions noted are these: SD 10%, mean of three experiments. It is filed as cell-based, human. As for the experimental part:
as §1

The next experiment has as its system Molm14. In words: XTT cell viability assay, Molm14 AML cells. Format: cell-based, human. The following applies: SD 10%, mean of three experiments. As for the experimental part:
as §1

The next experiment deals with SKM1. Description: XTT cell viability assay, SKM1 MDS cells. Format: cell-based, human. The conditions noted are these: SD 10%, mean of three experiments, read-out: IC50 SK (MDS). As to the method:
as §1

A further experiment deals with K562. Description: XTT cell viability assay, K562 CML cells. Format: cell-based, human. The following applies: SD 10%, mean of three experiments. As for the experimental part:
as §1

Experiment [1] relates to panel of human tumor cell lines. Description: XTT screening on a panel of tumor cell lines. The following applies: for IC50: Homo sapiens; for anti-proliferation/survival activity on malignant cells: in words. Format: cell-based. As to the method:
as §1

A further experiment relates to HuVEC. Description: Boyden chamber migration assay. Format: cell-based, human. The conditions noted are these: CXCL7 50 ng/ml, 2.5 µmol/L compound. As to the method: CXCL7 or VEGFA-stimulated chemotaxis assays were monitored using modified Boyden chambers containing polycarbonate membranes (8-μm pores, Transwell; Corning, Sigma). Cells were seeded onto the upper side of the filters and chambers were placed on 24-well plates containing CXCL7 (50ng/ml) or VEGFA (50ng/ml). Cell migration was followed for 24 h at 37°C in 5% CO2. Migratory cells on the lower membrane surface were fixed in 3% paraformaldehyde, stained with 0.1% crystal violet.

Take `CCN(CC)CCNC(=O)c1c(C)[nH]c(/C=C2\C(=O)Nc3ccc(F)cc32)c1C` [sunitinib]: the “efficacy on tumor growth, 786-O xenograft” value in the experiment on 786-O cells is recorded as “equivalent efficacy”.
Usually IC50 stands for the concentration that gives 50% inhibition. Turning to `O=C(Nc1ccc([N+](=O)[O-])cc1O)Nc1ccccc1Br` [SB225002, reference compound], the IC50 with CAL27 turned out to be 100 µM; with CAL33, 80 µM; in the experiment with A498, 70 µM; in the experiment with RCC4 (48 h) it was 100 µM; in the experiment with 786-O, 100 µM; with MDA-MD-231, 100 µM. For the same compound, the IC50 in the experiment with OCI-AML2 (48 h) was > 100 µM; in the experiment on OCI-AML3 (48 h) it was 90 µM; with Molm13 (48 h, read-out: IC50 13 (AML)), > 100 µM; in the experiment with Molm14 (48 h, read-out: IC50 14 (AML)) it was 90 µM; in the experiment on SKM1 (48 h) it was > 100 µM; with K562 (48 h), > 100 µM. The “effect on RCC and HNSCC cells” value in experiment [1] (786, 786R, CAL27, CAL27R (Figure S7), compared to C29) is “modest effect”.
Consider `O=C(Nc1ccc(Cl)cc1)Nc1ccccc1O` [C12], for which the concentration for half-maximal inhibition (IC50) in the experiment with CAL27 (Homo sapiens, CAL-27) amounted to 12 µM; with CAL33 (Homo sapiens, CAL-33) it was 10 µM; in the experiment on A498 (Homo sapiens, A498), 10 µM; in the experiment with RCC4 (Homo sapiens, RCC4, 48 h), 15 µM; in the experiment with 786-O (Homo sapiens, 786-0), 15 µM; in the experiment with MDA-MD-231 (Homo sapiens), 12 µM. The IC50 was 15 µM in the experiment on OCI-AML2 (Homo sapiens, OCI-AML2, 48 h); 25 µM with OCI-AML3 (Homo sapiens, OCI-AML-3, 48 h); > 25 µM in the experiment on Molm13 (Homo sapiens, MOLM-13, 48 h); 15 µM with Molm14 (Homo sapiens, MOLM-14, 48 h); > 25 µM with SKM1 (Homo sapiens, SKM-1, 48 h); 25 µM in the experiment with K562 (Homo sapiens, K562, 48 h). In addition, the IC50 in experiment [1] (read-out: IC50 for solid tumors (breast and kidney)) lay in the range of 10 to 20 µM.
Take `S=C(Nc1ccccc1)Nc1nc2ccccc2o1` [C19]: the IC50 was > 25 µM in the experiment on CAL27 (Homo sapiens, CAL-27); > 25 µM in the experiment on CAL33 (Homo sapiens, CAL-33); > 25 µM with A498 (Homo sapiens, A498); > 25 µM with RCC4 (Homo sapiens, RCC4, 48 h); > 25 µM with 786-O (Homo sapiens, 786-0); > 25 µM in the experiment with MDA-MD-231 (Homo sapiens). The IC50 in the experiment on OCI-AML2 (Homo sapiens, OCI-AML2, 48 h) is > 25 µM; in the experiment with OCI-AML3 (Homo sapiens, OCI-AML-3, 48 h) it was > 25 µM; in the experiment on Molm13 (Homo sapiens, MOLM-13, 48 h), > 25 µM; in the experiment with Molm14 (Homo sapiens, MOLM-14, 48 h), > 25 µM; in the experiment with SKM1 (Homo sapiens, SKM-1, 48 h), > 25 µM; with K562 (Homo sapiens, K562, 48 h), > 25 µM. Also, the “anti-proliferation/survival activity on malignant cells” value in [1] is recorded as “did not give anti-proliferation/survival activity”.
For `Cc1c(F)cccc1NC(=O)Nc1ccc(Cl)c(S(=O)(=O)[C@H]2CCCNC2)c1O` [danirixin, reference compound], in the experiment on HuVEC, the “CXCL7-dependent migration of HuVECs” value is reported as “no effect”. Further, the “efficacy on tumor growth, 786-O xenograft” value in the experiment on 786-O cells is on record as “equivalent efficacy”.
As for `O=C(Nc1ccc(Cl)cc1)Nc1nc2ccccc2[nH]1` [C16], the IC50 in the experiment on CAL27 (Homo sapiens, CAL-27) came to 15 µM; in the experiment with CAL33 (Homo sapiens, CAL-33), 15 µM; with A498 (Homo sapiens, A498), 9 µM; in the experiment with RCC4 (Homo sapiens, RCC4, 48 h), 20 µM; in the experiment with 786-O (Homo sapiens, 786-0), 20 µM; in the experiment with MDA-MD-231 (Homo sapiens), 20 µM. Further, the IC50 in the experiment on OCI-AML2 (Homo sapiens, OCI-AML2, 48 h) was 20 µM; in the experiment on OCI-AML3 (Homo sapiens, OCI-AML-3, 48 h), 22 µM; with Molm13 (Homo sapiens, MOLM-13, 48 h), > 25 µM; in the experiment with Molm14 (Homo sapiens, MOLM-14, 48 h), 20 µM; in the experiment on SKM1 (Homo sapiens, SKM-1, 48 h) it was > 25 µM; in the experiment on K562 (Homo sapiens, K562, 48 h) it was 12 µM. The IC50 in experiment [1] (read-out: IC50 values for several cancer cell lines) was < 20 µM.
Turning to `O=C(Nc1ccccc1)Nc1nc2ccccc2o1` [C18], the half-maximal inhibitory concentration (IC50) in the experiment with CAL27 (Homo sapiens, CAL-27) was > 25 µM; in the experiment on CAL33 (Homo sapiens, CAL-33) it was > 25 µM; in the experiment on A498 (Homo sapiens, A498) it was > 25 µM; with RCC4 (Homo sapiens, RCC4, 48 h), > 25 µM; with 786-O (Homo sapiens, 786-0), > 25 µM; in the experiment with MDA-MD-231 (Homo sapiens), > 25 µM. For the same compound, the half-maximal inhibitory concentration (IC50) in the experiment on OCI-AML2 (Homo sapiens, OCI-AML2, 48 h) is > 25 µM; with OCI-AML3 (Homo sapiens, OCI-AML-3, 48 h), > 25 µM; in the experiment on Molm13 (Homo sapiens, MOLM-13, 48 h), > 25 µM; in the experiment with Molm14 (Homo sapiens, MOLM-14, 48 h) it was > 25 µM; with SKM1 (Homo sapiens, SKM-1, 48 h) it was > 25 µM; in the experiment with K562 (Homo sapiens, K562, 48 h), > 25 µM. The “anti-proliferation/survival activity on malignant cells” value in experiment [1] was “did not give anti-proliferation/survival activity”.
